Test results published in ChEMBL document CHEMBL5303573, “Mapping human microbiome drug metabolism by gut bacteria and their genes” (Nature, 2019).

Key:
[1] = anaerostipes sp., 12 h, 2 µM
Description: The drug is tested on Anaerostipes sp. strain: fecal isolate for biotransformation. The drug concentrations were measured before and after a 12-h incubation by liquid-chromatography-coupled mass spectrometry (LC–MS)

[2] = akkermansia muciniphila, 12 h, 2 µM
Description: The drug is tested on Akkermansia muciniphila strain: ATCC BAA-835 for biotransformation. The drug concentrations were measured before and after a 12-h incubation by liquid-chromatography-coupled mass spectrometry (LC–MS)

[3] = The drug is tested on Clostridium spiroforme strain: DSM1552 for biotransformation. The drug concentrations were measured before and after a 12-h incubation by liquid-chromatography-coupled mass spectrometry (LC–MS); conditions: thomasclavelia spiroformis, 2 µM
[4] = The drug is tested on Clostridium hathewayi strain: DSM13479 for biotransformation. The drug concentrations were measured before and after a 12-h incubation by liquid-chromatography-coupled mass spectrometry (LC–MS); conditions: hungatella hathewayi, 2 µM
[5] = The drug is tested on Anaerotruncus colihominis strain: DSM17241 for biotransformation. The drug concentrations were measured before and after a 12-h incubation by liquid-chromatography-coupled mass spectrometry (LC–MS); conditions: 2 µM
[6] = The drug is tested on Coprococcus comes strain: ATCC27758 for biotransformation. The drug concentrations were measured before and after a 12-h incubation by liquid-chromatography-coupled mass spectrometry (LC–MS); assay type: ADME; parameters: dose 2 uM, timepoint 0 vs 12 hours; conditions: 2 µM
[7] = victivallis vadensis, 12 h, 2 µM
Description: The drug is tested on Victivallis vadensis strain: ATCC BAA-548 for biotransformation. The drug concentrations were measured before and after a 12-h incubation by liquid-chromatography-coupled mass spectrometry (LC–MS)

[8] = The drug is tested on Clostridium symbiosum strain: ATCC14940 for biotransformation. The drug concentrations were measured before and after a 12-h incubation by liquid-chromatography-coupled mass spectrometry (LC–MS); conditions: 2 µM
[9] = The drug is tested on Salmonella typhimurium strain: LT2 for biotransformation. The drug concentrations were measured before and after a 12-h incubation by liquid-chromatography-coupled mass spectrometry (LC–MS); conditions: salmonella enterica subsp. enterica, 2 µM

SMILES	Bacterial Biotransformation [1]	Bacterial Biotransformation [2]	Bacterial Biotransformation [3]	Bacterial Biotransformation [4]	Bacterial Biotransformation [5]	Bacterial Biotransformation [6]	Bacterial Biotransformation [7]	Bacterial Biotransformation [8]	Bacterial Biotransformation [9]
C=C[C@H]1CN2CC[C@H]1C[C@H]2[C@H](O)c1ccnc2ccc(OC)cc12.C=C[C@H]1CN2CC[C@H]1C[C@H]2[C@H](O)c1ccnc2ccc(OC)cc12.O.O.O=S(=O)(O)O [QUININE SULFATE]	Compound NOT metabolized	Compound NOT metabolized	Compound NOT metabolized	Compound NOT metabolized	Compound NOT metabolized	Compound NOT metabolized			
O=C(O[C@H]1C[C@H]2CC[C@@H](C1)[N+]21CCCC1)C(O)(c1ccccc1)c1ccccc1.[Cl-] [TROSPIUM CHLORIDE]	Compound NOT metabolized	Compound NOT metabolized			Compound NOT metabolized	Compound NOT metabolized	Compound NOT metabolized	Compound NOT metabolized	
CCC(=O)NCC[C@@H]1CCc2ccc3c(c21)CCO3 [RAMELTEON]	Compound NOT metabolized				Compound NOT metabolized	Compound NOT metabolized		Compound NOT metabolized	
CC(C)(C)NCC(O)COc1cccc2c1CC(O)C(O)C2 (stereo not given) [NADOLOL]	Compound NOT metabolized	Compound NOT metabolized			Compound NOT metabolized	Compound NOT metabolized		Compound NOT metabolized	
CC(C)(C)NC[C@H](O)COc1ccccc1C1CCCC1.CC(C)(C)NC[C@H](O)COc1ccccc1C1CCCC1.O=S(=O)(O)O [PENBUTOLOL SULFATE]	Compound NOT metabolized				Compound NOT metabolized	Compound NOT metabolized	Compound NOT metabolized	Compound NOT metabolized	Compound NOT metabolized
CCCCC(=O)N(Cc1ccc(-c2ccccc2-c2nnn[nH]2)cc1)[C@H](C(=O)O)C(C)C	Compound NOT metabolized	Compound NOT metabolized			Compound NOT metabolized	Compound NOT metabolized	Compound NOT metabolized	Compound NOT metabolized	
COC(=O)C(c1ccccc1)C1CCCCN1 (stereo not given) [METHYLPHENIDATE]		Compound NOT metabolized			Compound NOT metabolized	Compound NOT metabolized			Compound NOT metabolized
CCN(CC)CCNC(=O)c1cc(S(C)(=O)=O)ccc1OC [TIAPRIDE]	Compound NOT metabolized	Compound NOT metabolized			Compound NOT metabolized	Compound NOT metabolized		Compound NOT metabolized	
COc1c2occc2cc2ccc(=O)oc12 [METHOXSALEN]	Compound metabolized		Compound NOT metabolized	Compound metabolized	Compound NOT metabolized	Compound metabolized		Compound metabolized	
CCc1nc(N)nc(N)c1-c1ccc(Cl)cc1 [PYRIMETHAMINE]	Compound NOT metabolized				Compound NOT metabolized	Compound NOT metabolized		Compound NOT metabolized	
CC12CC3CC(C)(C1)CC(N)(C3)C2 [MEMANTINE]	Compound NOT metabolized	Compound NOT metabolized			Compound NOT metabolized	Compound NOT metabolized		Compound NOT metabolized	
Cc1cc(C)cc(OCC2CNC(=O)O2)c1 (stereo not given) [METAXALONE]	Compound NOT metabolized	Compound NOT metabolized			Compound NOT metabolized	Compound NOT metabolized		Compound NOT metabolized	
COC(=O)[C@H]1[C@H]2C[C@@H]3c4[nH]c5cc(OC)ccc5c4CCN3C[C@H]2C[C@@H](OC(=O)c2cc(OC)c(OC)c(OC)c2)[C@@H]1OC [RESERPINE]	Compound NOT metabolized	Compound NOT metabolized			Compound NOT metabolized	Compound NOT metabolized	Compound NOT metabolized		
COc1ccc(/C=C/C(=O)Nc2ccccc2C(=O)O)cc1OC	Compound NOT metabolized	Compound NOT metabolized			Compound NOT metabolized	Compound NOT metabolized	Compound NOT metabolized	Compound NOT metabolized	
NC(CO)(CO)CO.O=C(c1ccccc1)c1ccc2n1CCC2C(=O)O (stereo not given) [KETOROLAC TROMETHAMINE]	Compound NOT metabolized				Compound NOT metabolized			Compound NOT metabolized	
Cc1ccc(/C(=C\CN2CCCC2)c2ccccn2)cc1 [TRIPROLIDINE]	Compound NOT metabolized	Compound NOT metabolized			Compound NOT metabolized			Compound NOT metabolized	
CC(=O)O[C@H]1C(=O)[C@@]2(C)[C@H]([C@H](OC(=O)c3ccccc3)[C@]3(O)C[C@H](OC(=O)[C@H](O)[C@@H](NC(=O)c4ccccc4)c4ccccc4)C(C)=C1C3(C)C)[C@]1(OC(C)=O)CO[C@@H]1C[C@@H]2O [PACLITAXEL]	Compound NOT metabolized	Compound NOT metabolized			Compound NOT metabolized	Compound NOT metabolized	Compound NOT metabolized	Compound NOT metabolized	
OC(c1cc(C(F)(F)F)nc2c(C(F)(F)F)cccc12)C1CCCCN1 (stereo not given) [MEFLOQUINE]	Compound NOT metabolized					Compound NOT metabolized		Compound NOT metabolized	
CCCCc1nc(Cl)c(CO)n1Cc1ccc(-c2ccccc2-c2nn[nH]n2)cc1 [LOSARTAN]	Compound NOT metabolized	Compound metabolized			Compound NOT metabolized	Compound NOT metabolized	Compound NOT metabolized	Compound NOT metabolized	
CCCCC(=O)O[C@]1(C(=O)CO)[C@@H](C)C[C@H]2[C@@H]3CCC4=CC(=O)C=C[C@]4(C)[C@@]3(F)[C@@H](O)C[C@@]21C [BETAMETHASONE VALERATE]	Compound NOT metabolized				Compound NOT metabolized	Compound metabolized	Compound metabolized	Compound NOT metabolized	
O=C(NC(Cc1cc(=O)[nH]c2ccccc12)C(=O)O)c1ccc(Cl)cc1 (stereo not given) [REBAMIPIDE]	Compound NOT metabolized	Compound NOT metabolized			Compound NOT metabolized	Compound NOT metabolized	Compound NOT metabolized	Compound NOT metabolized	
CN(C)C(=O)C(CCN1CCC(O)(c2ccc(Cl)cc2)CC1)(c1ccccc1)c1ccccc1 [LOPERAMIDE]	Compound NOT metabolized				Compound NOT metabolized		Compound NOT metabolized	Compound NOT metabolized	
